Laboratory results from US20240366640A1, “LYOPHILIZED FORMULATION SOLUTION AND LYOPHILIZED FORMULATION, AND METHOD AND USE THEREOF” (ASCENTAWITS PHARMACEUTICALS, LTD., priority 2021, published 2024).

Columns and labels:
[1] = Solubility of TH-302 by the saturated solution method (HPLC, external standard); format: physicochemical
Procedure: The solubility is measured in an experiment by the saturated solution method; that is, the solid TH-302 was directly charged into the solvent until insoluble matter or turbidity appears. After clarification for a period of time, the solution was directly filtered. The clarified filtrate was taken directly for determination of the concentration of TH-302. The resulting concentration is exactly the solubility of TH-302 in this solvent system. Please refer to Tables 1, 2, and 3 for specific solubility data.
For the method for measuring the concentration of TH-302 (mg/ml), please refer to the HPLC method described in the patent WO2008083101A1 owned by Threshold Pharmaceuticals Inc. (see Example 2. An Ethanol Formulation of TH302, for details); and the external standard method was used for quantification.

[2] = Saturated solubility of the drug in D5W solution (strong shaking); format: physicochemical; conditions: left to stand at room temperature for 24 hours
Procedure: The TH-302 sample was weighed accurately in an amount of about 60 mg, placed in a transparent vial, and added with 6 ml of dextrose 5% in water (D5W). The resulting solution was shaked vigorously for 2 minutes to obtain a solubility-stock solution. It was observed that the solubility-stock solution contained insoluble substances. Thus, the solubility-preserving solution was filtered and then became clear. […] This value was exactly the saturated solubility of the drug in D5W solution.

[3] = concentrate with 70% ethanol, 25% dimethlyacetamide, 5% polysorbate 80; mainly induced by dimethlyacetamide; WO2015013448A1; cited from earlier work

With `Cn1c(COP(=O)(NCCBr)NCCBr)cnc1[N+](=O)[O-]` [TH-302] the Solubility ([1]; 1% Tween 80 aqueous solution (volume ratio)) was 7210 µg/mL, the Solubility ([1]; 95% tert-butanol/5% ethanol (volume ratio), TH-302 purchased commercially) was 9980 µg/mL and the “Appearance of the filtered filtrate” value [2] was “still clear”. For the same molecule, the TH-302 administration reactions [3] was “lip swelling and urticaria”.
